Like-named read-outs stand apart in the source and are kept apart here.
Experiments:
[1] = test system: Jak2V617F phosphorylation (P-Jak2) in HEL cells; test: Western blot of phospho-Jak2 in HEL cells; type: cell-based, human; details: 0.5, 1 or 5 μM, 3 hrs
[2] = test system: P-STAT5 in BA/F3-EpoR-Jak2V617F cells; test: Western blot of phospho-STAT5 in BA/F3-EpoR-Jak2V617F cells; type: cell-based, murine; details: 2.5 μM, 3 hrs
[3] = test system: P-STAT5 in UKE-1 cells (Jak2V617F); test: Western blot of phospho-STAT5 in UKE-1 cells; type: cell-based; details: 2.5 μM, 3 hrs
[4] = test system: Phospho-STAT5 (P-STAT5) levels in HEL cells (Jak2V617F); test: Western blot of phospho-STAT5 in HEL cells; type: cell-based, human; details: for IC50: mean ± SD
[5] = test system: Jak2V617F in HEK-V617F-STAT-Rep. cells; test: pSTAT-ZsGreen reporter gene assay; type: cell-based; details: 24 h, read-out: IC50 values, STAT-reporter gene assay
[6] = test system: Jak2V617F in γ2A-FRT-TI-Jak2V617F/STAT3-YFP cells; test: STAT3-YFP translocation assay; type: cell-based; details: read-out: IC50 values, STAT3-YFP translocation assay
Jak2 = Jak2 (Homo sapiens, UniProt O60674); test: Jak2 in vitro kinase assay; type: biochemical; details: Caliper versus literature (Figure S5B)
Chain of Jak2 (O60674 whole entry): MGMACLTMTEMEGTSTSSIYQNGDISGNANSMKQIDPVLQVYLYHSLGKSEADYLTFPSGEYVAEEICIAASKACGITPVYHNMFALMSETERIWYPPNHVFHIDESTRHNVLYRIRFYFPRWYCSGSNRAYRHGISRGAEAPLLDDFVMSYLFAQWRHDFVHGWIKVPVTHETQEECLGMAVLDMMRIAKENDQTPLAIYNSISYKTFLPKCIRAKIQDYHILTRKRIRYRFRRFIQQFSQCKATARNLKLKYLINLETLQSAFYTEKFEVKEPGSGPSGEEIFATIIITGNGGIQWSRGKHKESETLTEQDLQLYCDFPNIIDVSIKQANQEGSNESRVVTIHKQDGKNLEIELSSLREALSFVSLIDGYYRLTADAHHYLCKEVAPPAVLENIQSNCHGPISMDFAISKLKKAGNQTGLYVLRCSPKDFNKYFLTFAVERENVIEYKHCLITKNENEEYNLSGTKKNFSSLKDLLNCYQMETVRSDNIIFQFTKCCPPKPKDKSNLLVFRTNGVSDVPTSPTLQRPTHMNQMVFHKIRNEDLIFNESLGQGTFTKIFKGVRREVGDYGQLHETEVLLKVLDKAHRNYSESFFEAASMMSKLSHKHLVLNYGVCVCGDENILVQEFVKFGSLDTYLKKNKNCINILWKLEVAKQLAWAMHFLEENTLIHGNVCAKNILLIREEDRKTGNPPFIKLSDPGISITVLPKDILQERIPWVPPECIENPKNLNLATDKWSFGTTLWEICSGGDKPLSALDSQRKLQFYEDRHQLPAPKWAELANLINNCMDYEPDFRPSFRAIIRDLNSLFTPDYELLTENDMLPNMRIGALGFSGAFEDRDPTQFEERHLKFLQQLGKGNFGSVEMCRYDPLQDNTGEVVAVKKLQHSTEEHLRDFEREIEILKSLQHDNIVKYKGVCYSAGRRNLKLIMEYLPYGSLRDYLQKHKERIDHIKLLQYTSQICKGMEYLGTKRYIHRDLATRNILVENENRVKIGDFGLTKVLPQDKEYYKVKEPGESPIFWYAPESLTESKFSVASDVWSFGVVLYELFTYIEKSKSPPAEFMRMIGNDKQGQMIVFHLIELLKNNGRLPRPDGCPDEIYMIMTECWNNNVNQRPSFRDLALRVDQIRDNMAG

[7] = test system: γ2A-FRT-TI-Jak2V617F/STAT3-YFP cells; test: Nuclei size by confocal imaging and Cell Profiler; type: cell-based; details: 24 hrs; Cell Profiler
HEL cells = test: Cell proliferation assay; type: cell-based, human

- IC50 ([4]; Homo sapiens, HEL, read-out: IC50 values, WB (P-STAT5), HEL cells): ~600 nM
- IC50 ([4]; read-out: IC50 values, WB (P-STAT5), HEL cells): 633 ± 90 nM
- IC50 [6]: 459 ± 126 nM
- divergence between own and published in vitro kinase assay IC50 (Jak2): greater than 10 fold
SMILES: N#CCNC(=O)c1ccc(-c2ccnc(Nc3ccc(N4CCOCC4)cc3)n2)cc1 [CYT387]
- effect on phosphorylation of Jak2 [1]: increased phosphorylation of Jak2
- effect on phosphorylation of STAT5 (Western blot) [2]: efficiently decreased
- effect on phosphorylation of STAT5 (Western blot) [3]: efficiently decreased
- effect on phosphorylation of STAT5 (Western blot) ([4]; HEL cells, 0.5, 1 or 5 μM, 3 hrs): showed the same effects but were less efficient
- IC50 [5]: 794 ± 7 nM
- concentration at which nuclei size increases [7]: did not have this effect
- effect on proliferation of HEL cells (HEL cells; 0.3 or 1 μM, 72 hrs): showed the same effects but were less efficient
- IC50 (HEL cells; Homo sapiens, HEL, 72 h, read-out: IC50 values, Proliferation assay): 1180 ± 413 nM

— PMC3822589 (Journal of Cellular and Molecular Medicine, 2013)
